The record followed here is ChEMBL document CHEMBL2074237, “Biological activity of persimmon (Diospyros kaki) peel extracts” (Phytother Res, 2003).

In this data set the target is ATP-dependent translocase ABCB1 (Homo sapiens, UniProt P08183). Nature of the data set: TP_TRANSPORTER: inhibition of Rhodamine 123 efflux (R123: 5.2 micro;M) in MDR1 transfected L-5178 cells. Format: functional, cell-based. The following applies: mouse.
Sequence of ATP-dependent translocase ABCB1 (P08183 whole entry): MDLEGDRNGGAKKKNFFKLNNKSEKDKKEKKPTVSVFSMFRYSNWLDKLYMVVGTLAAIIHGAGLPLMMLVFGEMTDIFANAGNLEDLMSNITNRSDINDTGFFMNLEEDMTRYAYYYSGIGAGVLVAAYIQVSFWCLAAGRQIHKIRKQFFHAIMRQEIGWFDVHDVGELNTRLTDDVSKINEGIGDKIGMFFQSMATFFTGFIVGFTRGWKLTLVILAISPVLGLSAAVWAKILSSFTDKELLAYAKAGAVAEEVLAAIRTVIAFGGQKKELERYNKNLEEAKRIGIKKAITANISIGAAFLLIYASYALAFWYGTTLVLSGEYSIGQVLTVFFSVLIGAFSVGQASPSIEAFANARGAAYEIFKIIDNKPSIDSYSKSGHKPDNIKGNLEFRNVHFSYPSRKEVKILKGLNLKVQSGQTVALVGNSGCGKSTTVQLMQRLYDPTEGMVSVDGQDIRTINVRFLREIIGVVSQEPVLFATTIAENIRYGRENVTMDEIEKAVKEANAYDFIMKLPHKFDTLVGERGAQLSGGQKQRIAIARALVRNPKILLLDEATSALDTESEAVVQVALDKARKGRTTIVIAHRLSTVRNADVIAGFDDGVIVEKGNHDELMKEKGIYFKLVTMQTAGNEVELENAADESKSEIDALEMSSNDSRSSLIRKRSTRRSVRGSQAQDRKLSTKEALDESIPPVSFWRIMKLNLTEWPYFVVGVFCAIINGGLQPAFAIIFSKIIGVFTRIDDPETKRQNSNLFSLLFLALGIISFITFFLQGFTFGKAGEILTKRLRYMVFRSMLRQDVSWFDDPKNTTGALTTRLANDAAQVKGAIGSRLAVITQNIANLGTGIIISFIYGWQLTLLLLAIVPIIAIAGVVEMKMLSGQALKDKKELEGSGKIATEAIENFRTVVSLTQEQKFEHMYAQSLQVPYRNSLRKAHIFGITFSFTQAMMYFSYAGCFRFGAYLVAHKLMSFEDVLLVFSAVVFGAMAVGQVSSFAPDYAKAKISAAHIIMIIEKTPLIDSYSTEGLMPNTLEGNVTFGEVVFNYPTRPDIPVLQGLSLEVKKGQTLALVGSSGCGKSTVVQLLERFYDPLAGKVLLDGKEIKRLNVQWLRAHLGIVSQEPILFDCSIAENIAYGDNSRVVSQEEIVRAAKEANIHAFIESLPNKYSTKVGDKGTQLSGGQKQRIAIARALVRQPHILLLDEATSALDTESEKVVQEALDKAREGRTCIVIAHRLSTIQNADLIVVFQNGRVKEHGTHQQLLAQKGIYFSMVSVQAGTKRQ

With PERSIMMON PEEL EXTRACTS, the Activity entry is “inhibitor [+]”.
